Experimental data as given in PMC5688848 (Bioorganic & medicinal chemistry, 2016).
Each block holds one molecule with its values, some of them ahead of it. Ends that are not written are not given here.

Columns and labels:
[1] = molecular target: His-REV7(R124A)/biotin-AviTag-REV3L(1846–1898) complex (Homo sapiens, UniProt Q9UI95, R124A); assay: Pull-down assay on streptavidin-conjugated agarose beads; type: binding; conditions: compound 50 μM, complex 1 μM, 4°C 20 h
[2] = molecular target: His-REV7(R124A)/REV3L(1847–1898) complex (Homo sapiens, UniProt Q9UI95, R124A); assay: Thermal shift assay; type: binding; conditions: compound 500 μM, protein 5 μM, 4 h at room temperature
[3] = system: HeLa cells; assay: Cisplatin sensitization by the clonogenic survival assay; type: cell-based; conditions: cisplatin 24 h then compound 75 μM 24 h, 6 more days
[4] = system: ICLR in COS7 cells; assay: ICL repair assay; type: cell-based; conditions: 75 μM
[5] = system: HeLa cells; assay: Cell toxicity assay; type: cell-based; conditions: 75 μM, 3 days
[6] = molecular target: T1, hexahistidine (His)-REV7(R124A) (UniProt Q9UI95 1-211, R124A); assay: AlphaScreen or HTRF
[7] = molecular target: T1, hexahistidine (His)-REV7(R124A); assay: AlphaScreen or HTRF; remark: listed apart in the source

T1 sequence (Q9UI95 whole entry R124A): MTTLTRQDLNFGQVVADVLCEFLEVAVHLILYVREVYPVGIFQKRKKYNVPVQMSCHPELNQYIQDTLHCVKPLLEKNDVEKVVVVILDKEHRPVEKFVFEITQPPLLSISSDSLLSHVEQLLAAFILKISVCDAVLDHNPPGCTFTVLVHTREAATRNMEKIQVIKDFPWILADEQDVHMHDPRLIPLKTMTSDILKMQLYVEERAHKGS
Chain of His-REV7(R124A)/biotin-AviTag-REV3L(1846–1898) complex (Q9UI95 whole entry R124A, one chain of several): as the sequence (Q9UI95 whole entry R124A) above
Chain of His-REV7(R124A)/REV3L(1847–1898) complex (Q9UI95 whole entry R124A, one chain of several): as the sequence (Q9UI95 whole entry R124A) above

Molecule: CC(=O)N1CCC(Cn2cnc3scc(-c4ccc(C)o4)c3c2=O)CC1 [compound 7]
Normalized number of colonies (clonogenic survival) versus cisplatin only [3]: lesser | ICLR activity (luciferase activity of ICL plasmid normalized to non-ICL plasmid) [4]: suppressed luciferase activity | Viability / growth of HeLa cells (alamarBlue), normalized by DMSO [5]: decreased HeLa cell growth but did not completely eliminate the cells

Molecule: ANILKPLMSPPSREEIMATLL-biotin [C-terminal biotin-tagged REV3L(1875–1895) peptide]
binding result [7]: binds

More lines, main results first:

Shift in the denaturation point of the His-REV7(R124A)/REV3L(1847–1898) complex [2]: clear shift in the denaturation point
Molecule: CC(=O)N1CCC(Cn2cnc3scc(-c4ccco4)c3c2=O)CC1 [compound 1]
Isolation of His-REV7(R124A) on streptavidin beads (complex dissociation) [1]: significantly inhibited

IC50 [6]: 80 nM
Molecule: ANILKPLMSPPSREEIMATLL [non-tagged REV3L(1875–1895) peptide]
